# Assay results reported in patent US20260234188A1, “CHEMOKINE-BINDING PEPTIDES” (Oxford University Innovation Limited, priority 2022, published 2026).
# Entries after “also recorded” stand apart in the source; their conditions may differ. Ends that are not written are not given here. Peptide text beside a SMILES is read from it.
# Key:
# CC and CXC chemokines = assay: Chemokine-induced cell migration assays, pooled over chemokines (meta-analysis); format: cell-based, human; settings: single HD2 mutations; nine CC and six CXC chemokines
# Protocol: FIG. 16. Effect of HD2 alanine mutations on chemotaxis. […] All experiments were performed as three technical and three biological replicates, and individual data points are indicated, and coloured by the chemokine used. Statistically significant differences (compared to control, coloured blue), using Dunnett's test with correction for multiple comparisons, are indicated by asterisks: ****=P≤0.0001, ***=P≤0.001, **=P≤0.01, *=P≤[…] observations per group (three technical and three biological replicates for each chemokine). FIG. 16B, Faceted plots of change in median normalised cell count between alanine mutant and wild-type HD2 peptide obtained in cell migration assays (Y-axis, Δmedian normalised cell count) versus alanine mutated residue (X-axis). Chemokines used for each experiment are indicated in the strip to the right of each plot. Statistically significant differences compared to parental HD2 are shown as red dots. […] Scatterplot of Δmedian normalised cell count (Y-axis, obtained in cell migration assays) versus Δlog 2 E (obtained in phage-display experiments) for peptide:chemokine pairs. Individual data points indicate peptide chemokine pairs for which both cell migration and Δlog 2 E were available. Linear regression plot with 95% confidence interval, Spearman correlation coefficient (R) and statistical significance (p) are shown.
# FIG. 19. […] All experiments were performed as at least three technical and three biological replicates, and individual data points are indicated, and coloured by the chemokine used, for all chemokines studied (n=16 chemokines). Statistically significant differences (compared to control, coloured blue), using Dunnett's test with correction for multiple comparisons, are indicated by asterisks: ****=P≤0.0001, ***=P≤0.001, **=P≤0.01, *=P≤0.05.
# Briefly, cell migration assays use THP1 cells (human monocyte) and primary human buffy coat white cells (consisting of neutrophil granulocytes, monocytes, and lymphocytes), and activated T-cells. THP1 cells and primary monocytes respond to CCL2, CCL3, CCL5, CCL8 and CXCL4, granulocytes to CXCL1 and CXCL8, activated T-cells to CXCL9/10/11. Assays are performed in 96-well Boyden chambers, and migrated cells counted and characterized using and ATTUNE Flow Cytometer as described. Triplicate assays are performed at the EC80 dose of each chemokine at 10 μM peptide concentration.
# The J:CXCR1 cell line was generated by transfecting Jurkat cells by electroporation with PvuI-linearized plasmid D1398 and selecting with blasticidin (Sigma-Aldrich, Cat #203350, […]). […] J:CXCR1 cells were cultured in RPMI-1640 media (Gibco), supplemented with 10% FBS and 5 mM L-Glutamine with blasticidin. For J:CXCR1 migration assays, 300,000 cells/well were added to the top chamber of a 3 μm Transwell insert (Corning) in 50 μL of migration media (RPMI-1640, 0.5% FBS, 4 mM L-Glutamine, 0.05% DMSO). The bottom chamber contained 150 μL of chemokine, with or without peptide. Cells were migrated at 37° C. in 5% CO2 for 4 hours. The plate was incubated on a shaking platform for 10 minutes, 800 rpm, at 37° C., and 150 μL from the bottom of the plate transferred into a U-bottom plate containing 50 μL of migration media.
# [1] = test system: panel of 24 biotinylated chemokines; assay: Phage-display screen of HD2 NNK saturation mutagenesis library; format: binding, human; settings: for Chemokines Bound log2E 1-5 / Chemokines Bound log2E > 5: HD2 saturation mutants, chemokines on streptavidin beads, UniProt entry names
Compound,"chemotaxis inhibition compared with HD2, meta-analysis (CC and CXC chemokines)",Chemokines Bound log2E 1-5 [1],Chemokines Bound log2E > 5 [1],mean log 2 E compared to parental HD2 ([1]; over XC (CXC/CX3C) chemokines),mean log 2 E compared to parental HD2 ([1]; over all chemokines),peak log 2 E ([1]; best mutation at each residue)
EEDDYTAYWPLTCYFT [A9W],significant improvement over HD2,–,–,–,–,–
"EEDDWTAYAPLTCYFT-NH2 [HD2_W5, EEDDWTAYAPLTCYFT]",significant improvement over HD2,"CCL1, CCL11, CCL15, CCL17,; also recorded: CCL18, CCL19, CCL2, CCL22,; also recorded: CCL28, CCL3, CCL4, X3CL1,; also recorded: CXL11, SDF1, IL8","CXL10, CXL13",significant improvement,significant improvement,–
"CC(C)C[C@H](NC(=O)[C@@H]1CCCN1C(=O)[C@H](C)NC(=O)[C@H](Cc1ccc(O)cc1)NC(=O)[C@H](C)NC(=O)[C@@H](NC(=O)[C@H](Cc1ccc(O)cc1)NC(=O)[C@H](CC(=O)O)NC(=O)[C@H](CC(=O)O)NC(=O)[C@H](CCC(=O)O)NC(=O)[C@@H](N)CCC(=O)O)[C@@H](C)O)C(=O)N[C@H](C(=O)N[C@@H](CS)C(=O)N[C@@H](Cc1ccc(O)cc1)C(=O)N[C@@H](Cc1ccccc1)C(=O)N[C@@H](CS)C(N)=O)[C@@H](C)O [HD2_C16, EEDDYTAYAPLTCYFC] (H-EEDDYTAYAPLTCYFC-NH2; N-terminus assumed)",significant improvement over HD2,"CCL1, X3CL1, CXL10, CXL11,; also recorded: CXL14",IL8,–,–,highest peak log 2 E at that residue
EEDDYWAYAPLTCYFT [HD2_W6],significant improvement over HD2,"CCL1, CCL17, CCL18, CCL2,; also recorded: CCL20, CCL3, CCL4, IL8","CCL19, CCL25,; also recorded: CCL28, X3CL1,; also recorded: CXL10, CXL11,; also recorded: SDF1, CXL13,; also recorded: CXL14",significant improvement,–,–
